Assay results as given in patent US20050075375A1 (priority 2003, published 2005).
Where two headings read alike, the source gives them in different places.

Tested on: monocistronic NK5.1 HCV replicon in Huh7 cells
Assay: HCV replicon assay, monocistronic replicon cell line
Format: cell-based, hepatitis C virus
Details: Hepatitis C virus, read-out: Mono EC50 Median
In short: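 Huh7 cells carrying the monocistronic NK5.1 replicon, seeded 24 h before dosing, were exposed to six-point half-log compound series (0.6% DMSO) for 3 days at 37 °C. Replicon RNA was quantified by TaqMan RT-PCR, normalised to GAPDH and compared with DMSO controls to derive EC50.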

[1] = Huh-7, 72 h, Table 1, monocistronic replicon in Huh7 cells, 3 days incubation, HCV RNA/GAPDH RNA by TaqMan RT-PCR
[2] = Huh-7, monocistronic NK5.1 HCV replicon in Huh7 cells, median value
[3] = Huh-7, 72 h, table T3 (compounds 471-640), monocistronic replicon in Huh7 cells, 3 days incubation, HCV RNA/GAPDH RNA by TaqMan RT-PCR

| Structure (SMILES) | EC50 [1] [µM] | EC50 [2] [µM] | EC50 [3] [µM] |
| --- | --- | --- | --- |
| COc1ccc(O)c(-c2ccnn2Cc2ccccn2)c1 [Compound 115, 4-Methoxy-2-(2-pyridin-2-ylmethyl-2H-pyrazol-3-yl)-phenol] | > 32 | – | – |
| COc1ccc(-c2ccnn2-c2c(Cl)cncc2Cl)c(F)c1 [Compound 50, 3,5-Dichloro-4-[5-(2-fluoro-4-methoxy-phenyl)-pyrazol-1-yl]-pyridine] | 5.8 | – | – |
| CCOc1cccc(-c2nc(-c3ncccc3C)n[nH]2)c1O [Compound 446, 6-Ethoxy-2-(5-(3-methyl-pyridin-2-yl)-2H-[1,2,4]triazol-3-yl)-phenol] | – | 7.8 | – |
| Cc1cccnc1-c1noc(-c2ccc(N)cc2O)n1 [Compound 277, 5-Amino-2-[3-(3-methyl-pyridin-2-yl)-[1,2,4]oxadiazol-5-yl]-phenol] | – | 6 | – |
| Cc1cc(O)c(-c2cc(C)n(-c3ccc(Cl)cc3)n2)cc1C [Compound 22, 2-[1-(4-Chloro-phenyl)-5-methyl-1H-pyrazol-3-yl]-4,5-dimethyl-phenol] | > 19 | – | – |
| Cn1nc(-c2ccccn2)nc1-c1c(O)ccc2ccccc12 [Compound 605, 1-(2-methyl-5-Pyridin-2-yl-2H-[1,2,4]triazol-3-yl)-naphthalen-2-ol] | – | – | 9 |
| O=[N+]([O-])c1ccc(O)c(-c2nc(-c3ccccn3)no2)c1 [Compound 146, 4-Nitro-2-(3-pyridin-2-yl-[1,2,4]oxadiazol-5-yl)-phenol] | > 32 | – | – |
| CCCNC(=O)c1cc(-c2ccc(OC)cc2)nn1-c1ccc(Cl)cc1 [Compound 55, 2-(4-Chloro-phenyl)-5-(4-methoxy-phenyl)-2H-pyrazole-3-carboxylic acid propylamide] | 18 | – | – |
| Oc1c(-c2nc(-c3cnccn3)n[nH]2)ccc2ccccc12 [Compound 591, 2-(5-pyrazin-2-yl-2H-[1,2,4]triazol-3-yl)-naphthalen-1-ol] | – | – | 16 |
| FC(F)(F)c1ccc(-c2n[nH]c(-c3cccc4ccccc34)n2)nc1 [Compound 506, 2-(5-Naphthalen-1-yl-1H-[1,2,4]triazol-3-yl)-5-trifluoromethyl-pyridine] | – | – | > 19 |
| Cc1ccccc1-c1nnc(-c2cccs2)o1 [Compound 317, 2-Thiophen-2-yl-5-o-tolyl-[1,3,4]oxadiazole] | – | > 32 | – |
| COc1cccc(-c2nc(-c3ncccc3C(F)(F)F)n[nH]2)c1O [Compound 543, 6-Methoxy-2-[5-(3-trifluoromethyl-pyridin-2-yl)-2H-[1,2,4]triazol-3-yl]-phenol] | – | – | > 19 |
| COc1cccc(-c2nc(-c3nccc4ccccc34)n[nH]2)c1 [Compound 382] | – | > 19 | – |
| Fc1cc(Br)ccc1-c1nc(-c2ncccc2C(F)(F)F)n[nH]1 [Compound 552, 2-[5-(4-Bromo-2-fluoro-phenyl)-1H-[1,2,4]triazol-3-yl]-3-trifluoromethyl-pyridine] | – | – | > 19 |
| COc1ccc(-c2nc(-c3ccoc3)no2)c(O)c1 [Compound 286, 2-(3-Furan-3-yl-[1,2,4]oxadiazol-5-yl)-5-methoxy-phenol] | – | 9.7 | – |
| COc1ccc(-c2nc(-c3ccccn3)nn2C)c(O)c1 [Compound 601, 5-Methoxy-2-(2-methyl-5-pyridin-2-yl-2H-[1,2,4]triazol-3-yl)-phenol] | – | – | > 32 |
| COc1cc(O)c(-c2ccn(-c3ccccn3)n2)cc1OC [Compound 120, 4,5-Dimethoxy-2-(1-pyridin-2-yl-1H-pyrazol-3-yl)-p henol] | 31.2 | – | – |
| COc1ccc(O)c(-c2noc(-c3ncccc3C)n2)c1 [Compound 301, 4-Methoxy-2-[5-(3-methyl-pyridin-2-yl)-[1,2,4]oxadiazol-3-yl]-phenol] | – | > 32 | – |

| Structure (SMILES) | EC50 [1] [µM] | EC50 [2] [µM] | EC50 [3] [µM] |
| --- | --- | --- | --- |
| Oc1ccc(OC(F)(F)F)cc1-c1nc(-c2ccc(C(F)(F)F)cn2)no1 [Compound 287, 4-Trifluoromethoxy-2-[3-(5-trifluoromethyl-pyridin-2-yl)-[1,2,4]oxadiazol-5-yl]-phenol] | – | 1.7 | – |
| CC(C)(C)c1ccc(O)c(-c2nc(-c3ncccc3Br)n[nH]2)c1 [Compound 484, 2-[5-(3-Bromo-pyridin-2-yl)-2H-[1,2,4]triazol-3-yl]-4-tert-butyl-phenol] | – | – | 7.2 |
| O=[N+]([O-])c1ccc(O)c(-c2nc(-c3ncccc3Br)n[nH]2)c1 [Compound 485, 2-[5-(3-Bromo-pyridin-2-yl)-2H-[1,2,4]triazol-3-yl]-4-Nitro-phenol] | – | – | > 19 |
| O=[N+]([O-])c1cccc(-c2nc(-c3cnccc3C(F)(F)F)n[nH]2)c1 [Compound 480, 3-[5-(3-Nitro-phenyl)-1H-[1,2,4]triazol-3-yl]-4-trifluoromethyl-pyridine] | – | – | > 32 |
| FC(F)(F)c1cccnc1-c1n[nH]c(-c2c(Cl)cccc2Cl)n1 [Compound 551, 2-[5-(2,6-Dichloro-phenyl)-1H-[1,2,4]triazol-3-yl]-3-trifluoromethyl-pyridine] | – | – | > 19 |
| COc1ccc(O)c(-c2ccn(-c3ncccc3C(F)(F)F)n2)c1 [Compound 86, 4-Methoxy-2-[1-(3-trifluoromethyl-pyridin-2-yl)-1H-pyrazol-3-yl]-phenol] | 7.8 | – | – |
| CCOc1cccc(-c2nc(-c3ncccn3)n[nH]2)c1O [Compound 564, 6-Ethoxy-2-(5-pyrimidin-2-yl-2H-[1,2,4]triazol-3-yl)-phenol] | – | – | > 32 |
| COc1ccc(O)c(-c2ncn(-c3ncccc3C(F)(F)F)n2)c1 [Compound 638, 4-Methoxy-2-[1-(3-trifluoromethyl-pyridin-2-yl)-1H-[1,2,4]triazol-3-yl]-phenol] | – | – | 11 |
| Cc1cccnc1-c1noc(-c2cc(Cl)ccc2O)n1 [Compound 186, 4-Chloro-2-[3-(3-methyl-pyridin-2-yl)-[1,2,4]oxadiazol-5-yl]-phenol] | 3.9 | – | – |
| COc1ccc(-c2nc(-c3ncccc3C(F)(F)F)no2)c(O)c1 [Compound 211, 5-Methoxy-2-[3-(3-trifluoromethyl-pyridin-2-yl)-[1,2,4]oxadiazol-5-yl]-phenol] | 11 | 11 | – |
| Oc1ccc2ccccc2c1-c1nc(-c2ccccc2)no1 [Compound 135, 1-(3-Phenyl-[1,2,4]oxadiazol-5-yl)-naphthalen-2-ol] | > 32 | – | – |
| Cc1cccnc1-c1n[nH]c(-c2cc([N+](=O)[O-])ccc2O)n1 [Compound 442, 4-Nitro-2-(5-(3-methyl-pyridin-2-yl)-2H-[1,2,4]triazol-3-yl)-phenol] | – | 7.9 | – |
| O=[N+]([O-])c1cccc(-c2nc(-c3ccc(C(F)(F)F)cn3)no2)c1 [Compound 215, 2-[5-(3-Nitro-phenyl)-[11,2,4]oxadiazol-3-yl]-5-trifluoromethyl-pyridine] | 31 | 31 | – |
| Oc1ccc2ccccc2c1-c1nc(-c2nccc3ccccc23)n[nH]1 [Compound 385, 1-(5-isoquinolin-1-yl-2H-[1,2,4]triazol-3-yl)-naphthalen-2-ol] | – | > 19 | – |
| Cc1cc(O)c(-c2cc(C)n(-c3ccccc3)n2)cc1C [Compound 17, 4,5-Dimethyl-2-(5-methyl-1-phenyl-1H-pyrazol-3-yl)-phenol] | > 19 | – | – |
| COc1ccc(O)c(-c2nc(-c3ncccc3C)n[nH]2)c1 [Compound 444, 4-Methoxy-2-(5-(3-methyl-pyridin-2-yl)-2H-[1,2,4]triazol-3-yl)-phenol] | – | 7.7 | – |
| Cc1cccnc1-c1nc(-c2cc(Br)ccc2O)n(C)n1 [Compound 612, 4-Bromo-2-[2-methyl-5-(3-methyl-pyridin-2-yl)-2H-[1,2,4]triazol-3-yl]-phenol] | – | – | 2.4 |
